In patent US5688767A, “Treatment of endotoxin-associated disorders with cationic peptides” (priority 1996, dated 1997):
Converted amounts (≈) assume the structure as drawn.

Assays:
[1] = MIC of common antibiotics in the presence of sub-MIC levels of cationic peptides; type: cell-based
Description: The ability of the cationic peptides to work synergistically was examined by determining the MIC values for some commonly used antibiotics in the presence of sub-MIC levels of cationic peptides (Table 4). […] This may be due to the high membrane permeabilizing activity of CEMA (see below). However, the peptides did lower the MIC of polymyxin B, possibly due to the fact that they are all taken up by the same pathway and are therefore aiding each other's uptake. Of interest is the influence that melittin has on the MIC of polymyxin B, given the weak membrane permeabilizing activity of melittin.

[2] = biological target: P. aeruginosa H103 LPS; test: Dansyl polymyxin (DPx) displacement from purified LPS; type: binding, Pseudomonas aeruginosa; conditions: 2.5 μM DPx, 3 μg/ml LPS, 5 mM HEPES pH 7.2, average of at least three trials; for IC50: read-out: I50, Value in μM
Procedure: In this assay, DPx was incubated with LPS to saturate the binding sites and then, while polycationic compounds are titrated into the reaction, displacement of the DPx was monitored by the decrease in fluorescence (FIG. 9). P. aeruginosa LPS was isolated as previously described (Darveau, et al., J of Bacteriology, 155:831, 1983) Dansyl polymyxin was synthesized as described by Schindler, et al., B. Antimicrobial Agents and Chemo, 8:95, 1975.
The method of Moore, et al., (Antimicrobial Agents and Chemo., 29:496, 1987), was used to test how much DPx was needed to saturate the binding sties on LPS. Briefly, 5 μl samples of 100 μM DPx were titrated sequentially into 1 ml of 3 μg/ml of LPS until a maximum fluorescence was reached. The fluorescence was measured in a Perkin-Elmer 650-10S fluorescence spectrophotometer with an excitation wavelength of 340 nm and an emission wavelength of 485 nm using slit widths of 5 nm. […] For the binding inhibition assays (Moore, et al., Antimicrobial Agents and Chemo., 29:496, 1987), 2.5 μM DPx was added to 3 μg/ml of H103 LPS in 5 mM HEPES pH 7.2. The test compounds were added 5 μl at a time and the decrease in fluorescence due to displacement of the DPx from the LPS was recorded.
When the data was plotted as a double reciprocal plot (FIG. 10), the X-intercept provided a value that is equal to -1/I50.

[3] = tested on: S. typhimurium; test: microbe, parasite or virus in culture; type: cell-based, Salmonella typhimurium
Procedure: The minimum inhibitory concentrations of (MIC) of CEME, CEMA and melittin were determined for a number of different bacteria (Table 2). Briefly, cells were grown overnight at 37° C. in LB-S (Luria broth without any salt supplement) and diluted one in 10,000 in the same medium to give concentrations of about 10^4 to 10^5 CFU/ml. The broth dilutions were set up in a 96 well microtiter plate by putting 200 μl of LB-S containing the initial concentration of antibiotic or compound in column 1 and 100 μl of the same medium in columns 2-12. The compounds were diluted by taking 100 μl of broth from column 1 and mixing it with column 2, resulting in a one in two dilution. This was continued to column 10. Finally, 10 μl of bacteria were pipetted into columns 1-11, and the plates incubated overnight at 37° C. The next day the plates were scored for growth in the wells, and the MIC determined.
Bacteria included the Bort strain of E. coli (Bortolussi, et al., Inf. Immun., 25:293, 1979) that was originally derived from a case of neonatal meningitis, and which is therefore considered a relevant pathogenic strain to study, and the 0111:B4 strain of E. coli (kindly provided by Dr. D. Morrison) which is a standard source of endotoxin. (Kelly, et al., Inf. Immun., 59:4491, 1991). In addition, P. aeruginosa PA01 strain H103, P. aeruginosa M2, P. aeruginosa K799, Eschericha coli UB 1005, Enterobacter cloacae 218S, Salmonella typhimurium MS7953s, Klebsiella pneumoniae ATCC 13883, Xanthomonas maltophilia ATCC 13637, and Acinetobacter calcoacetious 8193 were employed. LPS was obtained from E. coli Bort by the technique of Westphal and Jann, (Westphal, et al., Acad. Press, Inc. NY., 5:83) and from P. aeruginosa H103 by the method of Darveau and Hancock, (Darveau, et al., J. Bacteriol, 155:831, […]). E. coli 0111:B4 LPS was purchased from Sigma.

[4] = Lethality of peptide alone in mice; type: in vivo

Compound	MIC in the presence of ([1]; CEMA 0.7 μg/ml) [μg/m1]	MIC in the presence of ([1]; CEMA 1.4 μg/ml) [μg/m1]	MIC in the presence of ([1]; CEME 0.6 μg/ml) [μg/m1]	MIC in the presence of ([1]; CEME 1.2 μg/ml) [μg/m1]	MIC in the presence of ([1]; Melittin 2 μg/ml) [μg/m1]	MIC in the presence of ([1]; Melittin 4 μg/ml) [μg/m1]	MIC in the presence of ([1]; No peptide) [μg/m1]	I50, Value in μg/ml [2] [µg/mL]	IC50 [2] [µM]	MIC ([3]; Salmonella typhimurium MS7953s) [µg/mL]	MIC ([3]; strain C587, Parent of C590) [µg/mL]	MIC ([3]; strain C590, Defensin sensitive) [µg/mL]	survival of mice given peptide alone ([4]; 200 μg (8.7 mg/kg) alone)	% Mortality ([4]; no LPS, peptide 200 ug) [%]	dead/total ([4]; no LPS, peptide 200 ug)
polymyxin B	0.5	0.12	0.5	0.25	0.5	0.06	1	2.97 ± 0.07	1.51 ± 0.04						
CC[C@H](C)[C@H](NC(=O)CNC(=O)[C@@H](NC(=O)[C@H](CCCCN)NC(=O)[C@H](CCCCN)NC(=O)[C@H](Cc1ccccc1)NC(=O)[C@H](CC(C)C)NC(=O)[C@H](CCCCN)NC(=O)[C@H](Cc1c[nH]c2ccccc12)NC(=O)[C@@H](N)CCCCN)[C@@H](C)CC)C(=O)NCC(=O)N[C@@H](C)C(=O)N[C@H](C(=O)N[C@@H](CC(C)C)C(=O)N[C@@H](CCCCN)C(=O)N[C@H](C(=O)N[C@@H](CC(C)C)C(=O)N[C@H](C(=O)N[C@H](C(=O)NCC(=O)N[C@@H](CC(C)C)C(=O)N1CCC[C@H]1C(=O)N[C@@H](C)C(=O)N[C@@H](CC(C)C)C(=O)N[C@@H](CCCCN)C(=O)N[C@@H](CC(C)C)C(=O)N[C@H](C(=O)N[C@@H](CCCCN)C(=O)O)[C@@H](C)O)[C@@H](C)O)[C@@H](C)O)C(C)C)C(C)C [CEMA]								4.12 ± 0.36	1.32 ± 0.117	4 (≈ 1.3 µM)	5.6 (≈ 1.83 µM)	1.4 (≈ 0.457 µM)	survived	0	0/5
